Results reported in article PMC11509018, “Evaluation of the Role of Tanshinone I in an In Vitro System of Charcot-Marie-Tooth Disease Type 2N” (International Journal of Molecular Sciences, 2024).

Target: T1, AlaRS G102R binding to GST-Nrp1 b1 (Homo sapiens, UniProt P49588, G102R)
T1 construct: made in house; host or cells: E. coli BL21 (DE3), pET-21a for AlaRS
T1 sequence (P49588 1-968 G102R): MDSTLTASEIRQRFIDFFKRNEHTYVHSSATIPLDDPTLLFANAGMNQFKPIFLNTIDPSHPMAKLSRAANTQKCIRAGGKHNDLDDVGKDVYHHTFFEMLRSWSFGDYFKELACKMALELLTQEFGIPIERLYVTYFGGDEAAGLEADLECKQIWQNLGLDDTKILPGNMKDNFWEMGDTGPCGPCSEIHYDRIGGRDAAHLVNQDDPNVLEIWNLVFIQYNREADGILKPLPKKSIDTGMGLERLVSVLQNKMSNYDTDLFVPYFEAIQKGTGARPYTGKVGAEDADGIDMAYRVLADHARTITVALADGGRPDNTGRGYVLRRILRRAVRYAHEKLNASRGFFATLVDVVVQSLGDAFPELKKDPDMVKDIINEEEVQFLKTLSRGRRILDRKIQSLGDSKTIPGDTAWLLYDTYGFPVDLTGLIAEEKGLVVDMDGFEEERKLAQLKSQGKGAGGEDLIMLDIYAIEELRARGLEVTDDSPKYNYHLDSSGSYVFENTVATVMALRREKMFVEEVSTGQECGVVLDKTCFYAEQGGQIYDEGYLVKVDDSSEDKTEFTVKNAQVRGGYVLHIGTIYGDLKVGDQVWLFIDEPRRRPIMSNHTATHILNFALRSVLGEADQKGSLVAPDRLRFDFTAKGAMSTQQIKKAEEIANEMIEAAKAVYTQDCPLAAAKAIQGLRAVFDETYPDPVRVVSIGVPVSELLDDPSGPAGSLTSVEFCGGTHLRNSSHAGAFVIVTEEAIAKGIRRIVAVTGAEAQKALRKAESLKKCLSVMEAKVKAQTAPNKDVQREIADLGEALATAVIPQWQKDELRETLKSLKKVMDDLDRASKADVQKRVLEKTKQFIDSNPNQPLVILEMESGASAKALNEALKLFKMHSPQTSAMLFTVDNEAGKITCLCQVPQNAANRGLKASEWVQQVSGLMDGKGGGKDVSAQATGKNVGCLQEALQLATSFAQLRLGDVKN
Experiment: GST pull down assay
Conditions: 20 µM Tanshinone I, ImageJ, average of three repeats

Cc1coc2c1C(=O)C(=O)c1c-2ccc2c(C)cccc12 [Tanshinone I]
Mean density band (G102R), relative quantification of AlaRS mutant pulled down: 0.76
